# Counter-ions that a name gives are not always drawn.
# Tested on: IL-1α (cytokine expression in hTERT keratinocytes)
# Experiment: In vitro assay: IL-1α in supernatants of IL-1β-treated hTERT keratinocytes (sandwich immunoassay, indexed to ATP viability)
# Format: cell-based, human
# Conditions: for Avg IL-1α measurement: hTERT keratinocytes, 18 hrs, 6 replicates; for IL-1α reduction compared in words (significance groupings): 500 ppm, IL-1β treated hTERT keratinocytes, >95% confidence
# Experimental: The following in vitro assay test was conducted to determine the effect of White Tea Extract, Panthenol and Glycyrrhizinate salt on cytokine expression in hTERT keratinocytes:
# BACKGROUND: hTERT-keratinocytes are a telomerase-immortalized neonatal epidermal keratinocyte line. Cell cultures of this type are known in the literature and have been used as models for multiple pathways as shown in the following references: Shay and Wright; Carcinogenesis, vol 26; no 5, pp 867-74, 2005; Bodner, et. al., Science, vol 279 pp 349-52, 1998; Ramirez, et. al., Oncogene, 22; pp 433-44, 2002. These cells display many features characteristic of normal primary keratinocytes and respond to normal growth controls in vitro.
# TEST PROTOCOL: all measures were run in replicate (n=6).
# To ensure proper levels of the biological active molecules for the in vitro study, dilution studies are conducted and ATP is analyzed for the highest non-cytotoxic concentration. White Tea Extract (H1615 WS, lot 98680094S-005) at a level of 500 ppm, Panthenol (lot 10063909S-018) at a level of 500 ppm, and Glycyrrhizinate salt (Barnet 25908N297) at a level of 500 ppm are used for this study. ATP analysis is described below.
# ATP analysis is conducted using Cell Titer-Glo. The CellTiter-Glo Luminescent Cell Viability Assay is obtained from Promega Corporation (Madison, Wis.). This assay is a homogeneous method for determining the number of viable cells in culture based on quantitation of ATP present, signaling the presence of metabolically active cells. After the final treatment and supernatants collected, the CellTiter-Glo reagent is added. The reagent is then transferred to a BD Falcon (Franklin Lakes, N.J.) Microtest 96-well Assay Plate (black, flat bottom, reference 353945, lot 041151). Luminescence is read on a Perkin Elmer Fluorimeter (Wallac Envision 2101 Multilabel Reader). Relative luminescence units are plotted in percent control versus treatment concentration.
# hTERT cells are cultured in complete EpiLife (Cascade Biologics, Portland, Oreg.) culture media in T75 culture flasks (Falcon, Becton Dickinson Labware, Franklin Lakes, N.J.) under 37° C./5% CO2 conditions. […] 2 ml of the cell suspension (density 20,000/cm^2) are plated in each well of a 6-well culture dish (Falcon) and cultured under 37° C./5% CO2 conditions overnight. A complete media exchange is performed and the cells are again cultured overnight under 37° C./5% CO2 conditions. The culture media is removed and 2 ml of treatment are placed in each well and the cells are cultured for 18 hrs. For all legs other than Control, IL-1β is added to the treatment at 1 nanogram per mL (for 2 nanograms per treatment). After the treatment period, the cell culture supernatants are collected and analyzed immediately for Interleukin-1α with an R&D Systems (Minneapolis, Minn.) kit which deploys the quantitative sandwich immunoassay technique. ATP is measured from cell lysates an indicator of viability. IL-1α is indexed to cell viability to ensure a proper reading of actual activity.
# TESTING: This test was conducted and the analysis of the data is as follows. Statistical differences among treatments for IL-1α were analyzed via JMP using a log-transform before the analysis of variance. The log-transform ensures that the response data are normally distributed and have equal variance. […]
# [1] = 500 ppm ingredient + IL-1β 1 nanogram per mL, IL-1α indexed to cell viability
Structure (SMILES),Avg IL-1α measurement [1],IL-1α reduction compared in words (significance groupings),"Avg IL-1α measurement (4.5 ppm + IL-1β, positive control)"
CC(C)(CO)[C@@H](O)C(=O)NCCCO [Panthenol],24.41,not significantly different than the IL-1β treated cells,
CC1(C)[C@@H](O[C@H]2O[C@H](C(=O)O)[C@@H](O)[C@H](O)[C@H]2O[C@H]2O[C@@H](C(=O)O)[C@H](O)[C@@H](O)[C@@H]2O)CC[C@]2(C)[C@H]3C(=O)C=C4[C@@H]5C[C@@](C)(C(=O)O)CC[C@]5(C)CC[C@@]4(C)[C@]3(C)CC[C@@H]12 [Glycyrrhizinate salt],17.57,slightly higher IL-1α reduction,
"C[C@H]1C[C@H]2[C@@H]3CCC4=CC(=O)C=C[C@]4(C)[C@@]3(F)[C@@H](O)C[C@]2(C)[C@@]1(O)C(=O)CCl [Clobetasol, reference compound]",,,14.29

# — patent publication US20120035557A1, “Personal Care Compositions Comprising A Multi-Active System For Down Regulating Cytokines Irritation” (priority 2010, published 2012)
